{"source": "patent US12478694B2", "about": "“H2O2-responsive crosslinking near-infrared molecular probe for tumor microenvironment and use therefor” (SOOCHOW UNIVERSITY, priority 2019, dated 2025)", "key": {"4T1 cells [1]": {"tested_on": "4T1 cells", "experiment": "Co-localization of intracellular probe and intracellular mitochondria", "type": "cell-based, mouse", "conditions": "5 μM probe, incubated 12 hours", "protocol": "Based on the method described in Example 2, 4T1 cells were seeded in a confocal small dish with 1.5×10^4 cells per well, placed in an incubator for 24 hours, and then the culture medium was discarded. The H2O2 responsive NIR molecular probe prepared in Example 1 was diluted with a culture medium to a concentration of 5 μM, and then added to a 4T1 cell culture dish, and placed in a cell incubator to incubate for 12 hours. After the probe and 4T1 cell incubation time was over, the cells were incubated with mitochondrial dye and Hoechst 33342 respectively, and the co-localization of the probe with mitochondria in 4T1 cells at the same time was observed using a confocal microscope."}, "4T1 cells [2]": {"tested_on": "4T1 cells", "experiment": "Immunofluorescence of the probes in hydrogen peroxide treated 4T1 cells after re-culturing for 12 hours", "type": "cell-based, mouse", "conditions": "100 μM H2O2 15 min, 5 μM probe 8 h, re-culture 12 hours", "protocol": "Based on the method described in Example 2, 4T1 cells were seeded in a confocal small dish, 1.5×10^4 cells per well, and placed in an incubator for 24 hours. After diluting hydrogen peroxide to 100 μM with cell culture medium, it was added to a culture dish of 4T1 cells and incubated for 15 minutes, and then the culture medium was discarded. The H2O2 responsive NIR molecular probe prepared in Example 1 was diluted with a culture medium to a concentration of 5 μM, and then added to a 4T1 cell culture dish, and placed in a cell incubator for 8 hours. After the incubation time of the probe and 4T1 cells is over, add new cell culture medium and continue culturing in the incubator for 12 hours. Subsequently, the cells were fixed with 4% paraformaldehyde at room temperature for 15 minutes, and then washed with PBS; secondly, 0.5% Trition-100 and 4T1 cells were incubated at room temperature for 5 minutes; the antibody anticysteine sulfenic acid was incubated at room temperature. After 1 hour, the antibody was washed with PBS, and then incubated at 37° C. for 30 minutes with goat anti-rabbit-Cy3. Finally, the nucleus was stained with Hoechst 33342 staining solution. […] The fluorescent probe (TC) without 3,5-dioxocyclohexane carboxylic acid was used as a control, and a unified experimental method was adopted."}, "4T1 cells [3]": {"tested_on": "4T1 cells", "experiment": "Retention of the probe in 4T1 cells treated with hydrogen peroxide, confocal fluorescence", "type": "cell-based, mouse", "protocol": "The 4T1 cells were first treated with 100 μM hydrogen peroxide for 15 min, and then the H2O2 responsive NIR molecular probe DATC prepared in Example 1 was diluted into the cell culture medium, and then added to the 4T1 cell culture dish and incubated (The probe concentration is 5 μM). The sulfhydryl group on the protein in 4T1 cells treated with hydrogen oxide will be oxidized to sulfenic acid. When the probe entered into the tumor cell, the group 3,5-dioxocyclohexane carboxylic acid will interact with sulfenic acid cross-linking forms a CS covalent bond, so that the probe molecule is firmly connected to the macromolecular protein in the tumor cell, thereby prolonging the residence time of the molecular probe in the tumor cell, and improving the imaging effect of the probe molecule.\nBased on the method described in Example 2, 4T1 cells were seeded in a confocal small dish, 1.5×10^4 cells per well, and placed in an incubator for 24 hours. After diluting hydrogen peroxide to 100 μM with cell culture medium, it was added to a culture dish of 4T1 cells and incubated for 15 minutes, and then the culture medium was discarded. The H2O2 responsive NIR molecular probe prepared in Example 1 was diluted with a culture medium to a concentration of 5 μM, and then added to the 4T1 cell culture dish, and placed in a cell incubator for 8 hours. After incubation of the probe and 4T1 cell, added new cell culture medium and continue culturing in the incubator for 4h, 8h, 12h and 24h. Then stained the nucleus with Hoechst33342 dye solution, and observed the fluorescence in 4T1 cells at different times after hydrogen peroxide treatment with a laser confocal microscope. The fluorescent probe (TC) without 3,5-dioxocyclohexane carboxylic acid was used as a control example, and a unified experimental method was adopted."}, "4T1": {"tested_on": "4T1", "experiment": "Cytotoxicity of the probe by MTT (thiazole blue) colorimetry", "type": "cell-based, mouse", "conditions": "4T1 cells", "protocol": "(§1) After diluting the H2O2 responsive NIR molecular probe prepared in Example 1 with methanol to a concentration of 1 μM, an ultraviolet-visible absorption spectrometer and a steady-state/transient fluorescence spectrometer were used to measure the ultraviolet absorption spectrum and fluorescence of the probe. Spectrum: The cytotoxicity of the probe to 4T1 was investigated by MTT (thiazole blue) colorimetry."}, "[4]": {"experiment": "Ultraviolet absorption spectrum and fluorescence spectrum of the probe", "type": "physicochemical", "conditions": "probe diluted with methanol to 1 μM", "protocol": "as §1"}, "[5]": {"tested_on": "4T1 mouse breast cancer tumor in BALB/c/nu female nude mice", "experiment": "NIR fluorescence imaging of the probe at the tumor site in mice", "type": "in vivo", "conditions": "intratumoral injection, 100 μM, 50 μL", "protocol": "BALB/c/nu female nude mice inoculated with 4T1 mouse breast cancer cells were randomly divided into two groups with 5 mice in each group. After the tumor on the right forelimb of the mouse grows up, the probes DATC and TC are injected into the tumors of the two groups of nude mice by intratumoral injection, at a concentration of 100 μM (50 μL/each). Then put the probe-injected mice in the small animal IVIS Lumina XRMS live imaging system to observe the changes in the fluorescence intensity of the probe in the nude mouse tumor over time, and calculate the experimental group probe and the control group through the IVIS live imaging analysis software The fluorescence intensity of the probe at different time points at the tumor site in nude mice."}}, "data": [{"smiles": "C[N+]1=C(/C=C/C=C/C=C2/N(CCCCCC(=O)NCCCn3cc(CNC(=O)[C@H](CCCCNC(=O)C4CC(=O)CC(=O)C4)NC(=O)CCC[P+](c4ccccc4)(c4ccccc4)c4ccccc4)nn3)c3ccc(S(=O)(=O)O)cc3C2(C)C)C(C)(C)c2cc(S(=O)(=O)O)ccc21", "note": "[DATC]", "values": [{"measurement": "co-localization of the probe with mitochondria", "setting": "4T1 cells [1]", "value": "basically coincide"}, {"measurement": "content / fluorescent signal of probe in cells", "setting": "4T1 cells [2]", "value": "relatively high"}, {"measurement": "red fluorescence intensity in 4T1 cells 8 hours after washing off the probe, versus control probe", "setting": "4T1 cells [3]; 100 μM H2O2 15 min, 5 μM probe 8 h, re-culture 8 h", "value": "significantly stronger"}, {"measurement": "fluorescence signal in 4T1 cells 24h later", "setting": "4T1 cells [3]; 100 μM H2O2 15 min, 5 μM probe 8 h, re-culture 24 h", "value": "strong fluorescence signal"}, {"measurement": "time the probe can stay in the cell", "setting": "4T1 cells [3]; fluorescence quantitative data, H2O2-treated 4T1 cells, 5 μM probe", "value": "≥ 24", "unit": "h"}, {"measurement": "killing effect on the cells as the concentration increases", "setting": "4T1", "value": "no killing effect on the cells"}, {"measurement": "max absorption peak", "setting": "[4]; UV absorption spectrum", "value": 646, "unit": "nm"}, {"measurement": "maximum emission", "setting": "[4]; fluorescence spectrum", "value": 670, "unit": "nm"}, {"measurement": "duration of the fluorescent signal at the tumor site", "setting": "[5]", "value": 36, "unit": "h"}, {"measurement": "fluorescence signal of the probe at the tumor site at 2h", "setting": "[5]; 2h", "value": "only slightly decreased"}, {"measurement": "fluorescence signal of the probe at the tumor site at 12h", "setting": "[5]; 12h", "value": "obvious fluorescence signal"}]}]}
